The assay deals with T1, HERC4 Probable E3 ubiquitin-protein ligase HERC4 (Homo sapiens, UniProt Q5GLZ8).
T1 construct: Cells were resuspended in cold PBS on ice and sonicated with a probe sonicator to achieve lysis; endogenous in cells
T1 sequence (Q5GLZ8 1-1057): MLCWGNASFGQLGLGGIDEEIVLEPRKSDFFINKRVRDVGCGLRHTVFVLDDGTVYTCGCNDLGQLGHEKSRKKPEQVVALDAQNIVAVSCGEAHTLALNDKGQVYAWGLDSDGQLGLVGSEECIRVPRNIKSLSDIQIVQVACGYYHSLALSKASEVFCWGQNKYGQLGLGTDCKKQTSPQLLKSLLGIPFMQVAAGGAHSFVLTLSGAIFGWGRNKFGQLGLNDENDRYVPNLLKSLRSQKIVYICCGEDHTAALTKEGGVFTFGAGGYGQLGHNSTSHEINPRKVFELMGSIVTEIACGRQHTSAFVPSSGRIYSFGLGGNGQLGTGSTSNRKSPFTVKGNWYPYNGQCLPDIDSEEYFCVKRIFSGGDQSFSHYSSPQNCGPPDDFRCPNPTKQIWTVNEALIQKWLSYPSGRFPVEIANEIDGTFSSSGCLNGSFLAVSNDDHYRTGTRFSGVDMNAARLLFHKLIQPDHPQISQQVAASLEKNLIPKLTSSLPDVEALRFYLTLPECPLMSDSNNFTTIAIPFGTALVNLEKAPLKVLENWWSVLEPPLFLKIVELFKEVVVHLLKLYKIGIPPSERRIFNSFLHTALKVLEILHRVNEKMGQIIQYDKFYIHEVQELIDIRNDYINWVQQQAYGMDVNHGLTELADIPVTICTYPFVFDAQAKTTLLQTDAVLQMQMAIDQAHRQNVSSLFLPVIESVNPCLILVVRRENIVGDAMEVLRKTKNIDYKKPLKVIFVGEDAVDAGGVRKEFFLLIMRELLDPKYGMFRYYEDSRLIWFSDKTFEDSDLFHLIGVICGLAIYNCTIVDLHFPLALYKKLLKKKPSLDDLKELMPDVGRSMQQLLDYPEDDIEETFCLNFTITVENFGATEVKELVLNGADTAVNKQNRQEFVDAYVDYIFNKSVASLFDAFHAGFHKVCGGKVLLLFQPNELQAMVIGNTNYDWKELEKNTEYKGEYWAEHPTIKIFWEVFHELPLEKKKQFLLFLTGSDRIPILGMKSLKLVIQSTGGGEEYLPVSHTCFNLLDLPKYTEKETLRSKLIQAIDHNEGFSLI
Description: Cysteine liganding, probe competition. It counts as binding. Put shortly: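 Read-out is loss of desthiobiotin iodoacetamide labelling at cysteines, measured on streptavidin-enriched tryptic peptides. Compound preincubation ran 1 hr at 25° C in PBS lysate holding 5 mg/ml proteome before the probe was added.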

As for `COc1ccc2c(c1)CCCN2C(=O)CCl` [KB02], for the setting “HERC4 Res# 60, uniprot Q5GLZ8”, the Liganded result is “YES”.
Turning to `O=C(CCl)Nc1cc(C(F)(F)F)cc(C(F)(F)F)c1` [KBO3], where the note is “uniprot Q5GLZ8”, the “100 Max” value was 42.0, the 100 ave came out at 15.4 and the 500 ave amounted to 58.8. For the same compound, the 500 Max (uniprot Q5GLZ8, unit assumed) is 62.3%.

Values taken from patent US20200239530A1, “COMPOUNDS AND METHODS OF MODULATING PROTEIN DEGRADATION” (Vividion Therapeutics, Inc., priority 2017, published 2020).
